According to US20090111857A1, “1,2,4-TRIAZOLE ETHER DERIVATIVES AS MODULATORS OF MGLUR5” (AstraZeneca AB, priority 2007, published 2009):

Assays:
human mGluR5d = target: T1, human mGluR5d (Homo sapiens, UniProt P41594); assay: FLIPR assay: mobilization of intracellular calcium in cells expressing human mGluR5d; assay type: cell-based; settings: antagonism of agonist-induced [Ca2+]i response, read-out: FLIPR hmGluR5d
T1 construct: expressed in transfected cells; The separate IP3 assay names GHEK cells
Source text: Functional Assessment of mGluR5 Antagonism in Cell Lines Expressing mGluR5D
The properties of the compounds of the invention can be analyzed using standard assays for pharmacological activity. Examples of glutamate receptor assays are well known in the alt as described in for example Aramori et al., Neuron 8:757 (1992), Tanabe et al., Neuron 8:169 (1992), Miller et al., J. Neuroscience 15: 6103 (1995), Balazs, et al., J. Neurochemistry 69:151 (1997). The methodology described in these publications is incorporated herein by reference. Conveniently, the compounds of the invention can be studied by means of an assay (FLIPR) that measures the mobilization of intracellular calcium, [Ca^2+]i in cells expressing mGluR5 or another assay (IP3) that measures inositol phosphate turnover.
Cells expressing human mGluR5d as described in WO97/05252 cultured in a mixture of high glucose DMEM with Glutamax (31966-021)(500 mL), 10% dialyzed fetal bovine serum (Hyclone #SH30079.03)(56 mL), 200 μg/in L Hygromycin B (Invitrogen 45-0430, 50 mg/mL)(2.2 mL), 200 μg/mL Zeocin (Invitrogen #R250-01; 100 mg/mL)(1.1 mL) are seeded at a density of 100,000 cells per well on collagen coated clear bottom 96-well plates with black sides and cells were allowed to adhere over night before experiments. All assays are done in a buffer containing 146 mM NaCl, 5 mM KCl, 1 mM MgCl2, 1 mM CaCl2, 20 mM HEPES, 1 mg/mL glucose and 1 mg/mL BSA Fraction IV (pH 7.4). Cell cultures in the 96-well plates are loaded for 60 minutes in the above mentioned buffer containing 6 μM of the acetoxymethyl ester form of the fluorescent calcium indicator fluo-3 (Molecular Probes, Eugene, Oreg.) in 0.025% pluronic acid (a proprietary, non-ionic surfactant polyol—CAS Number 9003-11-6). Following the loading period the fluo-3 buffer is removed and replaced with fresh assay buffer. FLIPR experiments are done using a laser setting of 0.700 W and a 0.4 second CCD camera shutter speed with excitation and emission wavelengths of 488 nm and 562 nm, respectively. Each experiment is initiated with 160 μl of buffer present in each well of the cell plate. A 40 μl addition from the antagonist plate was followed by a 50 μL addition from the agonist plate. A 30 minutes, in dark at 25° C., interval separates the antagonist and agonist additions. The fluorescence signal is sampled 50 times at 1-second intervals followed by 3 samples at 5-second intervals immediately after each of the two additions. Responses are measured as the difference between the peak heights of the response to agonist less the background fluorescence within the sample period. IC50 determinations are made using a […] least squares fitting program.

[1] = Determination of brain to plasma ratio in rat; assay type: in vivo; settings: brain and plasma, female Sprague Dawley rats, drug in brain over drug in plasma, read-out: Brain/Plasma Ratio of compound in Rat
Description: Brain to plasma ratios are estimated in female Sprague Dawley rats. The compound is dissolved in water or another appropriate vehicle. For determination of brain to plasma ratio the compound is administrated as a subcutaneous, or an intravenous bolus injection, or an intravenous infusion, or an oral administration. At a predetermined time point after the administration a blood sample is taken with cardiac puncture. The rat is terminated by cutting the heart open, and the brain is immediately retained. The blood samples are collected in heparinized tubes and centrifuged within 30 minutes, in order to separate the plasma from the blood cells. The plasma is transferred to 96-well plates and stored at −20° C. until analysis. The brains are divided in halt and each half is placed in a pre-tarred tube and stored at −20° C. until analysis. Prior to the analysis, the brain samples are thawed and 3 mL/g brain tissue of distilled water is added to the tubes. The brain samples are sonicated in an ice bath until the samples are homogenized. Both brain and plasma samples are precipitated with acetonitrile. After centrifugation, the supernatant is diluted with 0.2% formic acid. Analysis is performed on a short reversed-phase HPLC column with rapid gradient elution and MSMS detection using a triple quadrupole instrument with electrospray ionisation and Selected Reaction Monitoring (SRM) acquisition. Liquid-liquid extraction may be used as an alternative sample clean-up. The samples are extracted, by shaking, to an organic solvent after addition of a suitable buffer. An aliquot of the organic layer is transferred to a new vial and evaporated to dryness under a stream of nitrogen. After reconstitution of the residuals the samples are ready for injection onto the HPLC column.

T1 sequence (P41594 21-942 isoform P41594-3 limits assumed): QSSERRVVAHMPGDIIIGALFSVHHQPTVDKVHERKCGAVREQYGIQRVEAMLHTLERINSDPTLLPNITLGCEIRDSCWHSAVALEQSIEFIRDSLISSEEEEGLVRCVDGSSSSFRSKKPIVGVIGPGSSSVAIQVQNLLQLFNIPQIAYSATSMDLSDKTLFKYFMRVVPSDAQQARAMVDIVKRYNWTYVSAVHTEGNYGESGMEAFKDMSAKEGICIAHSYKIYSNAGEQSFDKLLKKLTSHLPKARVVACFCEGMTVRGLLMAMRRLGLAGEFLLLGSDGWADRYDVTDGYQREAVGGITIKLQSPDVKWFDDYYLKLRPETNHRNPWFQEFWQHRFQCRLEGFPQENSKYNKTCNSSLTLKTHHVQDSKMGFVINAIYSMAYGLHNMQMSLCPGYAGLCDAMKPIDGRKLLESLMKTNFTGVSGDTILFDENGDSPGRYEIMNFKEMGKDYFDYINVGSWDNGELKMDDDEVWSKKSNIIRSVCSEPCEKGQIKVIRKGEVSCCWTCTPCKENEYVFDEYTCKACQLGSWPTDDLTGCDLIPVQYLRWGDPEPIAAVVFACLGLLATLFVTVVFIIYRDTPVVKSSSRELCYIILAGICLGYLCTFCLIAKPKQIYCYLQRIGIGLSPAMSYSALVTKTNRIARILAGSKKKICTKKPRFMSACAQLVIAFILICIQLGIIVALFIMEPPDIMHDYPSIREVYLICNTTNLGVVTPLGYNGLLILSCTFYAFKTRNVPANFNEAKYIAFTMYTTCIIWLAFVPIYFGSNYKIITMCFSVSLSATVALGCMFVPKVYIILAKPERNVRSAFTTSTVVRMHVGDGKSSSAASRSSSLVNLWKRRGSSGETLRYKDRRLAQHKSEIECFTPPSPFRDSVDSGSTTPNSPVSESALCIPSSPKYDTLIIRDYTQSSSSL

C[C@@H](Oc1nnc(-c2ccc(C(N)=O)cc2)n1C)c1noc(-c2cccc(Cl)c2)n1 [Example 10.1, 4-(5-{(1R)-1-[5-(3-Chlorophenyl)-1,2,4-oxadiazol-3-yl]ethoxy}-4-methyl-4H-1,2,4-triazol-3-yl)benzamide]
IC50 (human mGluR5d): 8 nM
Kp [1]: 0.03

C[C@@H](Oc1nnc(-c2ccc(C(N)=O)cc2)n1C)c1nnn(-c2cccc(Cl)c2)n1 [Example 10.2, 4-(5-{(1R)-1-[2-(3-Chlorophenyl)-2H-tetrazol-5-yl]ethoxy}-4-methyl-4H-1,2,4-triazol-3-yl)benzamide]
IC50 (human mGluR5d): 6 nM
Kp [1]: 0.01

C[C@@H](Oc1nnc(-c2ccc(C(N)=O)cn2)n1C)c1nnn(-c2cccc(Cl)c2)n1 [Example 10.3, 6-(5-{(1R)-1-[2-(3-Chlorophenyl)-2H-tetrazol-5-yl]ethoxy}-4-methyl-4H-1,2,4-triazol-3-yl)nicotinamide]
IC50 (human mGluR5d): 5 nM
Kp [1]: 0.075

Cc1cccc(-n2nnc([C@@H](C)Oc3nnc(-c4ccc(C(N)=O)cn4)n3C)n2)c1 [Example 10.4, 6-(4-Methyl-5-{(1R)-1-[2-(3-methylphenyl)-2H-tetrazol-5-yl]ethoxy}-4H-1,2,4-triazol-3-yl)nicotinamide]
IC50 (human mGluR5d): 6 nM
Kp [1]: 0.09
